Legend:
[1] = system: human colon tumor xenografts; conditions: Carson; Takahashi; cited from earlier work
[2] = Micro-PET imaging studies; assay type: in vivo; conditions: for micro-PET image findings: 30 minutes, 1 hour and 2 hours post-injection; for wash out of activity with time (micro-PET): up to 2 hours post-injection
Method: PET imaging was performed using a Micro-PET scanner (Concorde Microsystems, Inc.), with 120 transaxial planes and spatial resolution of 2.0 mm, at 30 minutes, 1 hour and 2 hours post-injection. Images were reconstructed using Ordered Subset Expectation Maximization (OSEM) algorithm.

[3] = Blood clearance after intravenous injection; assay type: in vivo, athymic nude mice; conditions: blood samples 1-120 minutes after i.v. injection
Method: Activity injected into each mouse was measured in a dose calibrator (Capintec). […] Activity in each blood sample was measured by a gamma counter, standardized for injected dose, and % injected dose per gram was calculated. Mean % injected dose per gram was plotted against time to obtain the blood clearance curve for each compound. Animals were anesthetized with Nembutal (40 mg/kg) and sacrificed at 2 hours post-injection. All organs including tumor were separated and weighed. Radioactivity in each organ was measured using a gamma counter. For each mouse, radioactivity uptake was expressed as % injected dose per gram, and as ratio of organ to blood uptake.

[4] = mouse, in vivo
[5] = target: T1, herpes simplex virus thymidine kinase (HSV-tk) (Human herpesvirus 1, UniProt P0DTH5); assay: Tumor uptake in HSV-tk transduced versus wild type tumors on the same animal; assay type: in vivo; conditions: tumor uptake in transduced and wild type cells comparable
T1 construct: expressed in transfected cells
T1 sequence (P0DTH5 whole entry): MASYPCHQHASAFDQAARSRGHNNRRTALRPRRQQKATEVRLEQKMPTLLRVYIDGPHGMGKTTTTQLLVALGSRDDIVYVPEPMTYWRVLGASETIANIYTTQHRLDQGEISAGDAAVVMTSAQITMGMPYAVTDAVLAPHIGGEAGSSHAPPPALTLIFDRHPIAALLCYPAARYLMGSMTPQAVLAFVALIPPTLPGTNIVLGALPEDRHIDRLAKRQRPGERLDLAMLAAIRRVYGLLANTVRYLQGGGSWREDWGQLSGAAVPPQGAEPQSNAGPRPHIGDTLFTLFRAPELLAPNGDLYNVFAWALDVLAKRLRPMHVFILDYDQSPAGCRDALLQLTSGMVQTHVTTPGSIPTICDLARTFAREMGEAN

[6] = cited from earlier work

For `Nc1nc(Cl)nc2c1ncn2[C@@H]1O[C@H](CO)[C@@H](O)[C@@H]1F` [2′-deoxy-2′-fluoro-2-chloro-9-β-D-arabinofuranosyladenine], the “activity against human colon tumor xenografts” value [1] is listed as “active”.

For `Nc1ncnc2c1ncn2[C@@H]1O[C@H](CO)[C@@H](O)[C@@H]1[18F]` [[^18F]-FAA, 2′-deoxy-2′-[^18F]-fluoro-9-β-D-arabinofuranosyladenine], the micro-PET image findings [2] was “high uptake in spleen”, the “wash out of activity with time (micro-PET)” value [2] was “wash out of activity with time was minimal” and the blood clearance pattern [3] was “clear rapidly from the blood initially, then slow down after 20 minutes post-injection”. For the same compound, the Uptake in kidney [4] was 3.5%, the Uptake in liver [4] was 2.4% and the “tissue of highest uptake” value [4] was “spleen”. The “tumor uptake compared to the background activity” value [4] was “more than 3 fold”, the “uptake in tumors compared to blood” value [4] was 3.3 fold and the “substrate for HSV-tk” value [5] was “not a substrate for HSV-tk”.

In the case of `Nc1ncnc2c1ncn2[C@@H]1O[C@H](CO)[C@H]([18F])[C@H]1O` [[^18F]-FXA, 3′-deoxy-3′-[^18F]-fluoro-9-β-D-xylofuranosyladenine], the micro-PET image findings [2] was “activity is in the heart”, the “wash out of activity with time (micro-PET)” value [2] was “did not wash out in 2 hours post-injection” and the blood clearance pattern [3] was “clear rapidly from the blood initially, then slow down after 20 minutes post-injection”. The “tissue of highest uptake” value [4] was “heart” and the tumor/blood ratio [4] was “less than 1”.

In the case of `Nc1nc(=O)n([C@@H]2O[C@H](CO)[C@@H](O)[C@@H]2F)cc1[125I]` [[^125I] labeled FIAC, [^125I]-2′-fluoro-5-iodo-1-β-D-arabinofuranosylcytosine], the deiodination in vivo [6] is listed as “extensive deiodination in vivo”.
